Like-named read-outs stand apart in the source and are kept apart here.
Key:
Caco-2 cells = experiment: MTT cell viability assay; assay type: cell-based, human; details: for reduction of cell viability rate of Caco-2 cells: 80 μM (highest concentration), 36 h, vs control; for cytotoxicity to the growth of Caco-2 cells: 10-80 μM
Experimental: Cell viability was measured using the 3-(4, 5-dimethylthiazol-2-yl)-2,5-diphenyltetrazolium bromide (MTT) assay. The Caco-2 cells were seeded in 96-well plates at a density of 2 × 10^3 cells/well in DMEM culture medium and cultured at 37 °C for 24 h. After that, the culture medium was replaced with fresh medium containing epimedins A, B, and C at concentrations ranging from 10 μM to 80 μM. Control groups consist of cells in medium (without epimedins A, B, and C) which are processed identically and incubated simultaneously as treated groups. And then the 96-well plates were incubated for 36 h. Subsequently, 10 μL of 5 mg/mL MTT was added to each well and the plates were incubated for another 4 h. The solutions in each well were then removed followed by dissolving the remained formazan crystals in the cells with 100 μL DMSO. The absorbance was measured at 550 nm using a microplate reader (Thermo Labsystems, Helsinki, Finland). The cell viability of each compound was calculated as the percentage of the absorbance relative to that of negative control.

[1] = Bidirectional transport (A-B and B-A) across Caco-2 cell monolayers; assay type: in vitro ADME; details: human; for efflux ratio at 5 h, 20 µM / efflux ratio at 5 h: Caco-2, pH 7.4; for efflux ratio at 5 h, 20 µM: 20 μM epimedin, no inhibitor, read-out: efflux ratio (PBA/PAB), control without inhibitor; for efflux ratio at 5 h / Papp A→B at 5 h / Papp B→A at 5 h: concentrations of 5–40 μM; for efflux ratio at 5 h: read-out: efflux ratio (PBA/PAB); for Papp A→B at 5 h / Papp B→A at 5 h: Caco-2, HBSS pH 7.4; for Papp A→B at 5 h: A-B direction, read-out: absorptive permeability (PAB); for Papp B→A at 5 h: B-A direction, read-out: secretory permeability (PBA)
Experimental: The Caco-2 TC7 cell line (at passage 30) is generally similar to the wild-type Caco-2 cell line. […] The conditions for Caco-2 cell culture have been described previously. Cells were cultured in a humidified atmosphere of 5% CO2 and 95% air at 37 °C. The culture medium (Dulbecco’s modified Eagle’s medium ) was supplemented with 10% (v/v) fetal bovine serum, 1% nonessential amino acids, 100 U/mL penicillin, and 100 µg/mL streptomycin. When the cell culture reached 80% confluence, it was rinsed with phosphate-buffered saline and split using trypsin. For transport experiments, the cells were seeded on 3 μm porous polycarbonate cell culture Transwell® inserts from Nunc, which has a surface area of 4.2 cm^2 at a density of 100,000 cells/cm^2. The culture media was replaced every other day. The monolayers were ready for experiments from 19 to 21 days after seeding. Transepithelial electrical resistance (TEER) was used to monitor the integrity and tight junction of the Caco-2 cell monolayer.
Epimedin A, epimedin B, and epimedin C were dissolved in dimethyl sulfoxide (DMSO)-ethanol (v/v = 6/4) to prepare the stock solution (8 mM) for each single compound. The above-mentioned solutions were further diluted with HBSS solution (pH = 7.4) to obtain a series of working standard solutions, and the final concentrations of epimedin A, epimedin B, and epimedin C in the transport samples were 5 µM, 10 µM, 20 µM and 40 µM, respectively. Moreover, the final concentrations of the organic solvent of different samples were controlled below 0.5% to ensure the safety to the cells.
(§1) The transport experiments were performed as described previously. Firstly, the cell monolayers were rinsed thrice with 37 °C HBSS (pH 7.4), and the monolayers were incubated with the buffer for 1 h, then the incubation medium was aspirated. Afterwards, transport from the apical side (AP) to basolateral side (BL): 2.9 mL drug solution were added to the AP side (which was regarded as donor side) and 2.5mL HBSS were added to the BL side (which was regarded as receiver side). Transport from the basolateral side to apical side: 2.9 mL drug solution were added to the BL (donor) side and 2.5 mL HBSS were added to the AP (receiver) side. When the transport inhibitors were used, they were loaded only at the donor side. In the test for each solution, four donor samples (400 μL) and four receiver samples (400 μL) were taken at time intervals of 2, 3, 4, and 5 h after incubation, followed by an immediate replacement with fresh donor solution (400 μL) to the donor side or fresh buffer (400 μL) to the receiver side.
(§2) To each transport sample (400 µL), acetonitrile (100 µL) containing 100 µM of testosterone was added as an internal standard and preservation. The resulting mixture was vortexed for 30 sec and then centrifuged at 15,000 rpm for 15min. The supernatant obtained was determined by ultra-performance liquid chromatography (UPLC) within 24 h. At the end of the transport experiment, the TEER value was remeasured to confirm the integrity of the cell monolayer.
UPLC was used to determine the concentration of the compounds in the transport samples obtained from the Caco-2 model. The conditions for UPLC analysis of epimedin A, epimedin B, and epimedin C in the presence of inhibitors (verapamil or MK571) were as follows: system, Waters Acquity^TM UPLC with photodiode array detector and Empower software; column, Acquity UPLC BEH C18, 1.7 μm, 2.1 × 50 mm (Waters, Milford, MA, USA); mobile phase A, acetonitrile; mobile phase B, water; gradient, 0 to 0.5 min, 25% A, 0.5 to 1.0 min, 25% to 60% A, 1.0 to 2.5 min, 60% to 80% A, 2.5 to 3 min, 80% to 25% A; flow rate, 0.4 mL/min; wavelength, 270 nm (epimedin A, epimedin B and epimedin C), 283nm (MK571), 278 nm (verapamil) and 245 nm (testosterone); column temperature, 30 °C; and injection volume, 5 μL. […]

P-glycoprotein (P-gp) = molecular target: T1, P-glycoprotein (P-gp) (Homo sapiens, UniProt P08183); experiment: Caco-2 transport in the presence of verapamil (P-gp inhibitor); assay type: in vitro ADME; details: 20 μM epimedin; for efflux ratio at 5 h, 20 µM: human
T1 construct: endogenous in cells; host or cells: Caco-2 TC7 cell monolayers
T1 sequence (P08183 whole entry): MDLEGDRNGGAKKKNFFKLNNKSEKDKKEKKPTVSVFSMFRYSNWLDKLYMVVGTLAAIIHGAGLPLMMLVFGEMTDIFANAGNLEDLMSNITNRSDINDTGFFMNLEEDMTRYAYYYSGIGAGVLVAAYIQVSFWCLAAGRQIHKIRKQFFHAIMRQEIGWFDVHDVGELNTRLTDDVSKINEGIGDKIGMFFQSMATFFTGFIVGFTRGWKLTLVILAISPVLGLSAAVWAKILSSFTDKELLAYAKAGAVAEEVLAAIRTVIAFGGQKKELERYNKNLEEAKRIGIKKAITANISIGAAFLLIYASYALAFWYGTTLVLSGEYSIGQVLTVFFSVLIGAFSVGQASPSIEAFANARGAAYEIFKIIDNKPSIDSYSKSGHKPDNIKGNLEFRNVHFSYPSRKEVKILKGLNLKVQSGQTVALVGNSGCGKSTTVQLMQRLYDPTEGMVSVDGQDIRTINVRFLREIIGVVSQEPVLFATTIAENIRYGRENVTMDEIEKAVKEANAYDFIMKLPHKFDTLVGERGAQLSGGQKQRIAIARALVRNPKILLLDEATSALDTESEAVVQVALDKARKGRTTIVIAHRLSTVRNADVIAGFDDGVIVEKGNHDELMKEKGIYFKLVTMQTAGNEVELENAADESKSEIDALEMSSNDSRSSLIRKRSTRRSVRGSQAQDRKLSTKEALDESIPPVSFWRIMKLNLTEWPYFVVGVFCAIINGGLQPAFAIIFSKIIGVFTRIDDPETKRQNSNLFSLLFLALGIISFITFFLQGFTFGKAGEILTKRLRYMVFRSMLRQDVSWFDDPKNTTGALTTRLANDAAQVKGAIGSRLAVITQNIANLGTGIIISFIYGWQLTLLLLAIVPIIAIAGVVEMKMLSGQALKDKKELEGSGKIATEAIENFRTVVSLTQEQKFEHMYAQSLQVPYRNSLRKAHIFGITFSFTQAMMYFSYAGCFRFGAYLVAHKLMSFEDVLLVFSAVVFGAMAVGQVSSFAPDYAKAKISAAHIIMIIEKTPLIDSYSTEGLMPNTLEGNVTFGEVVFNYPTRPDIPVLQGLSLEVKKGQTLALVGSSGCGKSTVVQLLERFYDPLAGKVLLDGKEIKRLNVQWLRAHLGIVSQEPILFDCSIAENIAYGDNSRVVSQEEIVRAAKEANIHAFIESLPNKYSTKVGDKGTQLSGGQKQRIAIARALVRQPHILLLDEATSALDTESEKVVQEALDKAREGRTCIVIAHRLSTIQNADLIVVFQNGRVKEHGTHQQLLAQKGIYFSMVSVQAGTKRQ
Experimental: (§3) Meanwhile, verapamil was dissolved in water to 2 mM as well as MK571 and dipyridamole were dissolved in dimethyl sulfoxide (DMSO)-ethanol (v/v = 1/1) to prepare the stock solution (10 mM) when they were used. In addition, testosterone (internal standard) was dissolved in acetonitrile with acetic acid (v/v = 94/6) to 100 µM.
as §1, §2
(§4) UPLC was used to determine the concentration of the compounds in the transport samples obtained from the Caco-2 model. The conditions for UPLC analysis of epimedin A, epimedin B, and epimedin C in the presence of inhibitors (verapamil or MK571) were as follows: system, Waters Acquity^TM UPLC with photodiode array detector and Empower software; column, Acquity UPLC BEH C18, 1.7 μm, 2.1 × 50 mm (Waters, Milford, MA, USA); mobile phase A, acetonitrile; mobile phase B, water; gradient, 0 to 0.5 min, 25% A, 0.5 to 1.0 min, 25% to 60% A, 1.0 to 2.5 min, 60% to 80% A, 2.5 to 3 min, 80% to 25% A; flow rate, 0.4 mL/min; wavelength, 270 nm (epimedin A, epimedin B and epimedin C), 283nm (MK571), 278 nm (verapamil) and 245 nm (testosterone); column temperature, 30 °C; and injection volume, 5 μL.
(§5) In the Caco-2 cell model, rate of transport is obtained from amount transported versus time curve using linear regression. […] The rate of drug transport was calculated by linear regression analysis using Microsoft Excel software (Microsoft Corporation, Redmond, WA, USA ). All data were presented as means ± SD. Statistical comparisons were evaluated by ANOVA test using the SPSS 16 software. Results were considered significant at p < 0.05.

[2] = molecular target: T2, breast cancer resistance protein (BCRP) (Homo sapiens, UniProt Q9UNQ0); experiment: Caco-2 transport in the presence of dipyridamole (BCRP inhibitor); assay type: in vitro ADME; details: 20 μM epimedin
T2 construct: endogenous in cells; host or cells: Caco-2 TC7 cell monolayers
T2 sequence (Q9UNQ0 1-655): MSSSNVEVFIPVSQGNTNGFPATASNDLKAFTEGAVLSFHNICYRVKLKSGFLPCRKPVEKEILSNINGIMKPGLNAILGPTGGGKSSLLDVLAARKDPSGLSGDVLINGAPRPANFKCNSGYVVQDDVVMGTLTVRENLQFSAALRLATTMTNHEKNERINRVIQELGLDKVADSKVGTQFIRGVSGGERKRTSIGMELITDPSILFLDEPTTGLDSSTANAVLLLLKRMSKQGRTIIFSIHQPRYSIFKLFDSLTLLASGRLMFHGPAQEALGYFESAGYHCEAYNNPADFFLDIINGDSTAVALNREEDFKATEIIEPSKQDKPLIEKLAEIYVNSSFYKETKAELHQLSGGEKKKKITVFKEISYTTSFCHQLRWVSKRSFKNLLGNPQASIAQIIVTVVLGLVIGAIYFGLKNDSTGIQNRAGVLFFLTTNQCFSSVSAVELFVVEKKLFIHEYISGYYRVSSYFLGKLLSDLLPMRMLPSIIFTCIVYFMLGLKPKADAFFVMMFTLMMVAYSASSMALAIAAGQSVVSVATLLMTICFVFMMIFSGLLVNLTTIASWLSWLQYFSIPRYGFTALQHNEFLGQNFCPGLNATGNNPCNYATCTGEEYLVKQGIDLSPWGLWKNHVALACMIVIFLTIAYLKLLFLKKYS
Experimental: as §3, §1, §2
While analysis the samples in the presence of another inhibitor (dipyridamole), the conditions were as follows: system and column were the same as before; mobile phase A, 90% acetonitrile, 10%water; mobile phase B, 10% acetonitrile, 90% water containing 0.015% (v/v) formic acid and 0.02% (v/v) triethylamine (pH 3.0); gradient, 0–0.3 min, 95% B, 0.3–2.9 min, 95%–65% B, 3.8 min, 0% B, 3.8–4.5 min, 0%–95% B; flow rate, 0.4 mL/min; wavelength, 270 nm (epimedin A, epimedin B and epimedin C), 285 nm (dipyridamole) and 245 nm (testosterone,); column temperature, 30 °C; and injection volume, 5 μL.
as §5

[3] = test system: multidrug resistance proteins (MRPs); experiment: Caco-2 transport in the presence of MK571 (MRP inhibitor); assay type: in vitro ADME, human; details: 20 μM epimedin, 50 μM MK571
Experimental: as §3, §1, §2, §4, §5

Caco-2 cell monolayers = test system: Caco-2 cell monolayers; parameters: method as in PMID 11145220; details: cited from earlier work

Compound	reduction of cell viability rate of Caco-2 cells (Caco-2 cells)	cytotoxicity to the growth of Caco-2 cells (Caco-2 cells)	efflux ratio at 5 h, 20 µM [1]	efflux ratio at 5 h [1]	Papp A→B at 5 h [1]	Papp B→A at 5 h [1]	reduction of PBA (P-glycoprotein (P-gp); 50 μM verapamil)	reduction of PBA ([2]; 50 μM dipyridamole)	reduction of efflux ratio ([2]; 50 μM dipyridamole)	effect on PAB and PBA (transport) [3]	reduction of efflux ratio [3]	permeability of poorly absorbed compound (Caco-2 cell monolayers)	other results
COc1ccc(-c2oc3c(CC=C(C)C)c(OC4O[C@H](CO)[C@@H](O)[C@H](O)[C@H]4O)cc(O)c3c(=O)c2OC2O[C@@H](C)[C@H](O)[C@@H](O)[C@H]2O[C@@H]2O[C@H](CO)[C@@H](O)[C@H](O)[C@H]2O)cc1 (stereo partly drawn) [epimedin A]	7%	nontoxic	2.04	> 2	0.42 to 0.72 ×10⁻⁶ cm/s	1.29 to 1.89 ×10⁻⁶ cm/s	22%	38%	47%	did not alter	13%	–	PAB relative to control group (P-glycoprotein (P-gp); 50 μM verapamil): 1.5 fold; efflux ratio at 5 h, 20 µM (P-glycoprotein (P-gp); Caco-2, pH 7.4, with verapamil 50 µM, 50 μM verapamil, read-out: efflux ratio in the presence of verapamil): 1.03; increase of PAB ([2]; 50 μM dipyridamole): 1.2 fold
COc1ccc(-c2oc3c(CC=C(C)C)c(O[C@@H]4O[C@H](CO)[C@@H](O)[C@H](O)[C@H]4O)cc(O)c3c(=O)c2O[C@@H]2O[C@@H](C)[C@H](O)[C@@H](O)[C@H]2O[C@@H]2OC[C@@H](O)[C@H](O)[C@H]2O)cc1 [epimedin B]	7%	nontoxic	1.98	> 2	0.39 to 0.73 ×10⁻⁶ cm/s	1.19 to 1.76 ×10⁻⁶ cm/s	–	–	50%	increased	32%	–	effect on PAB and PBA (P-glycoprotein (P-gp); verapamil): increased; reduction of efflux ratio (P-glycoprotein (P-gp); verapamil): 31%; effect on absorptive permeability ([2]; 50 μM dipyridamole): increased significantly; effect on secretory permeability ([2]; 50 μM dipyridamole): significantly decreased; efflux ratio at 5 h, 20 µM ([2]; human, Caco-2, pH 7.4, with dipyridamole 50 µM, 50 μM dipyridamole): 1.02
COc1ccc(-c2oc3c(CC=C(C)C)c(O[C@@H]4O[C@H](CO)[C@@H](O)[C@H](O)[C@H]4O)cc(O)c3c(=O)c2O[C@@H]2O[C@@H](C)[C@H](O)[C@@H](O)[C@H]2O[C@@H]2O[C@@H](C)[C@H](O)[C@@H](O)[C@H]2O)cc1 [epimedin C]	7%	nontoxic	–	> 2	0.42 to 0.72 ×10⁻⁶ cm/s	1.2 to 2.28 ×10⁻⁶ cm/s	17%	27%	–	did not significantly influence	–	–	increase in absorptive permeability (PAB) (P-glycoprotein (P-gp); 50 μM verapamil): 109%; efflux ratio at 5 h, 20 µM (P-glycoprotein (P-gp); Caco-2, pH 7.4, with verapamil (concentration not stated for this group), verapamil, read-out: reduction of efflux ratio): ~2.5; increase in absorptive permeability (PAB) ([2]; 50 μM dipyridamole): 43%; fold reduction of efflux ratio at 5 h, 20 µM ([2]; human, Caco-2, pH 7.4, with dipyridamole (concentration not stated for this group), dipyridamole): ~1.95
OC[C@@H](O)[C@@H](O)[C@H](O)[C@H](O)CO [mannitol]	–	–	–	–	–	–	–	–	–	–	–	1.7e-06 cm/s	–
O=C(O)c1cc(/N=N/c2ccc(S(=O)(=O)Nc3ccccn3)cc2)ccc1O [sulfasalazine]	–	–	–	–	–	–	–	–	–	–	–	0.34 × 10^−6	–

— publication PMC6270917, “Study on the Mechanism of Intestinal Absorption of Epimedins A, B and C in the Caco-2 Cell Model” (Molecules, 2014)
